# Measured values: US10221163B2 (priority 2015, dated 2019)
# Read-outs that look alike come from different tables or passages of the source.
# Assays:
# VIM-1 = VIM-1 (Pseudomonas aeruginosa (strain ATCC 15692 / DSM 22644 / CIP 104116 / JCM 14847 / LMG 12228 / 1C / PRS 101 / PAO1), UniProt A0A0F7KYQ8); assay: biochemical; conditions: CCF2-FA substrate, 30 pM enzyme, 2 hours at 25° C.
# Method in brief: (§1)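 Fluorescence assay, CCF2-FA substrate (cephalosporin core linking 7-hydroxycoumarin to fluorescein); inhibitor + MBL + substrate, 2 h, 25° C. IC50 by 4-parameter fit, semi-log plot.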
# IMP-1 = IMP-1 (Serratia marcescens, UniProt P52699); assay: biochemical; assay type: biochemical; conditions: fluorescence assay, CCF2-FA substrate, 2 pM enzyme, 2 hours at 25° C.; read-out: IMP-1 IC50
# Method in brief: as §1
# NDM-1 = NDM-1 (Klebsiella pneumoniae, UniProt C7C422); assay: biochemical; assay type: biochemical; conditions: fluorescence assay, CCF2-FA substrate, 1 pM enzyme, 2 hours at 25° C.; read-out: NDM-1 IC50
# Method in brief: as §1
# [1] = tested on: Pseudomonas aeruginosa MB9798 vs MB9799; conditions: ratio MITC95 PA_9798/MITC95 PA_9799
# Method in brief: (§2)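 Microbroth MIC tests in PAO1-background strains with fixed imipenem and/or ceftazidime, usually at the CLSI breakpoint, plus fixed class A/C β-lactamase inhibitor against AmpC. MBL inhibitor titrated; concentration restoring susceptibility recorded and compared as fold difference between efflux+ MB9798 and efflux− MB9799.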
# [2] = tested on: Pseudomonas aeruginosa efflux− (MB9799), IMP-1; assay type: cell-based; conditions: concentration restoring susceptibility to imipenem at 2 μg/mL in the presence of a class A, C, D serine β-lactamase inhibitor closely related to relebactam
# Method in brief: as §2
# [3] = tested on: Klebsiella pneumoniae expressing VIM-1 (IHMA599644); assay type: cell-based; conditions: VIM-1 strain IHMA599644, with imipenem 1 μg/ml, 95% inhibition of growth
# Method in brief: (§3)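 Clinical isolates (E. coli NDM-1, S. marcescens IMP-1, K. pneumoniae VIM-1) were diluted 1:100 from saline suspension into 1.1×CAMHB and exposed to test compound with imipenem at 1 μg/ml. Plates were incubated at 35° C for 22 hours to 24 hours, and growth was read by absorbance.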
# [4] = tested on: Escherichia coli expressing NDM-1 (CLB30005, CLB30016); assay type: cell-based; conditions: NDM-1 strain, with imipenem 1 μg/ml, 95% inhibition of growth
# Method in brief: as §3
# [5] = tested on: Serratia marcescens expressing IMP-1 (CL5741); assay type: cell-based; conditions: IMP-1 strain CL5741, with imipenem 1 μg/ml, 95% inhibition of growth
# Method in brief: as §3
# [6] = tested on: Pseudomonas aeruginosa efflux+ (MB9798), IMP-1; assay type: cell-based; conditions: concentration restoring susceptibility to imipenem at 2 μg/mL in the presence of a class A, C, D serine β-lactamase inhibitor closely related to relebactam
# Method in brief: as §2
# [7] = fluorescence assay, read-out: VIM-1 IC50
# Sequence of NDM-1 (C7C422 whole entry, looked up, species assumed): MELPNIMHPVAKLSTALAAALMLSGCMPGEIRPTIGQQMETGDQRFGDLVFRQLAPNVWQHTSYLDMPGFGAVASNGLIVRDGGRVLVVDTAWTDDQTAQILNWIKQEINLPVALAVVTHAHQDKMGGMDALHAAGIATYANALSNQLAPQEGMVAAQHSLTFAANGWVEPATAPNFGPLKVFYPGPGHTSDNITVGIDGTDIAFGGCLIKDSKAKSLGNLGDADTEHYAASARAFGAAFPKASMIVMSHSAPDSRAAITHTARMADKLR
# Sequence of IMP-1 (P52699 whole entry, looked up, species assumed): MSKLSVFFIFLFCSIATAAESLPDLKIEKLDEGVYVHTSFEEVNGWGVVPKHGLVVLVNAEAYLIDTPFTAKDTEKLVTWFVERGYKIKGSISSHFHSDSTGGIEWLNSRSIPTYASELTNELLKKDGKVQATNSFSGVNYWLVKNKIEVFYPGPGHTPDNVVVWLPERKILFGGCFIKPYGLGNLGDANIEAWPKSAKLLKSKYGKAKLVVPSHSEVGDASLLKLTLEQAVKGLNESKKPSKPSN
Compound,IC50 (VIM-1; [7]) [nM],IC50 (IMP-1) [nM],IC50 (NDM-1) [nM],Efflux ratio [1],"P. aeruginosa expressing IMP-1, efflux − (MB9799) MITC95 [2] [µM]",Klebsiella pneumoniae MITC95 [3] [µM],Escherichia coli MITC95 [4] [µM],Serratia marcescens MITC95 [5] [µM],"P. aeruginosa expressing IMP-1, efflux + (MB9798) MITC95 [6] [µM]","IC50 (VIM-1; VIM-1 IC50, fluorescence assay) [nM]"
"NCCNS(=O)(=O)c1ccc(-c2cccnc2N)c(-c2nn[nH]n2)c1S(N)(=O)=O [Example 358, N1-(2-aminoethyl)-4-(2-aminopyridin-3-yl)-3-(2H-tetrazol-5-yl)benzene-1,2-disulfonamide]",0.205,4.05,0.319,2.00,0.7813,1.563,0.2441,0.3906,1.563,
"NCCNS(=O)(=O)c1ccc(-c2cnc3cc[nH]c3c2)c(-c2nn[nH]n2)c1S(N)(=O)=O [Example 359, N1-(2-aminoethyl)-4-(1H-pyrrolo[3,2-b]pyridin-6-yl)-3-(2H-tetrazol-5-yl)benzene-1,2-disulfonamide]",0.254,1.61,0.154,2.00,0.7813,1.563,0.09766,0.3906,1.563,
"NCCNS(=O)(=O)c1ccc(-c2cccn3ccnc23)c(-c2nn[nH]n2)c1S(N)(=O)=O [Example 361, N1-(2-aminoethyl)-4-(imidazo[1,2-a]pyridin-8-yl)-3-(2H-tetrazol-5-yl)benzene-1,2-disulfonamide]",,0.147,0.143,1.00,0.7813,1.563,0.3906,0.7813,0.7813,0.0953
"NC[C@H](CO)NS(=O)(=O)c1ccc(-c2ccnc(N)c2)c(-c2nn[nH]n2)c1S(N)(=O)=O [Example 362, (R)—N1-(1-amino-3-hydroxypropan-2-yl)-4-(2-aminopyridin-4-yl)-3-(2H-tetrazol-5-yl)benzene-1,2-disulfonamide]",,9.51,3.08,2.00,1.563,3.125,1.563,1.563,3.125,1.88
"NCc1nc2c(-c3ccc(S(=O)(=O)N[C@H](CN)CO)c(S(N)(=O)=O)c3-c3nn[nH]n3)cccc2s1 [Example 363, (R)—N1-(1-amino-3-hydroxypropan-2-yl)-4-(2-(aminomethyl)benzo[d]thiazol-4-yl)-3-(2H-tetrazol-5-yl)benzene-1,2-disulfonamide]",,3.67,0.649,4.00,0.7813,3.125,3.125,1.563,3.125,0.591
"NC[C@H](CO)NS(=O)(=O)c1ccc(-c2cccc(N)n2)c(-c2nn[nH]n2)c1S(N)(=O)=O [Example 364, (R)—N^1-(1-amino-3-hydroxypropan-2-yl)-4-(6-aminopyridin-2-yl)-3-(2H-tetrazol-5-yl)benzene-1,2-disulfonamide]",3.24,14.6,3.25,2.00,1.563,6.25,3.125,3.125,3.125,
"Nc1ccc(-c2ccc(S(=O)(=O)NC[C@@H](N)CO)c(S(N)(=O)=O)c2-c2nn[nH]n2)cn1 [Example 365, (R)—N1-(2-amino-3-hydroxypropyl)-4-(6-aminopyridin-3-yl)-3-(2H-tetrazol-5-yl) benzene-1,2-disulfonamide]",0.246,0.59,0.259,2.00,0.7813,3.125,0.1953,0.3906,1.563,
"Nc1nc2c(-c3ccc(S(=O)(=O)NC[C@]4(N)CCNC4)c(S(N)(=O)=O)c3-c3nn[nH]n3)cccc2s1 [Example 366, (S)-4-(2-aminobenzo[d]thiazol-4-yl)-N^1-((3-aminopyrrolidin-3-yl)methyl)-3-(2H-tetrazol-5-yl) benzene-1,2-disulfonamide]",,0.0753,0.0225,1.00,0.7813,3.125,0.7813,1.563,0.7813,0.105
"Nc1nc2c(-c3ccc(S(=O)(=O)NC[C@@]4(N)CCNC4)c(S(N)(=O)=O)c3-c3nn[nH]n3)cccc2s1 [Example 367, (R)-4-(2-aminobenzo[d]thiazol-4-yl)-N1-((3-aminopyrrolidin-3-yl)methyl)-3-(2H-tetrazol-5-yl)benzene-1,2-disulfonamide]",,0.0766,0.0193,0.50,1.563,3.125,1.563,1.563,0.7813,0.0975
"Nc1ccc(-c2ccc(S(=O)(=O)NC[C@]3(N)CCNC3)c(S(N)(=O)=O)c2-c2nn[nH]n2)cn1 [Example 368, (S)-4-(6-aminopyridin-3-yl)-N1-((3-aminopyrrolidin-3-yl)methyl)-3-(2H -tetrazol-5-yl)benzene-1,2-disulfonamide]",,0.304,0.203,1.00,1.563,3.125,0.7813,0.7813,1.563,0.253
"Nc1ccc(-c2ccc(S(=O)(=O)NC[C@@]3(N)CCNC3)c(S(N)(=O)=O)c2-c2nn[nH]n2)cn1 [Example 369, (R)-4-(6-aminopyridin-3-yl)-N1-((3-aminopyrrolidin-3-yl)methyl)-3-(2H -tetrazol-5-yl)benzene-1,2-disulfonamide]",,0.508,0.276,1.00,1.563,3.125,0.3906,0.7813,1.563,0.302
